For data set [1] the following is noted: 4 h, pH 7.4.
Experimental: Solubility Test Procedure I:
(§1) A 50 mmol stock solution for each test compound was prepared using dimethyl sulfoxide. From this stock solution, a working solution of 1 mmol was prepared by diluting with dimethyl sulfoxide. The working solution of 1 mmol was then serially diluted using dimethyl sulfoxide. Then, 5-20 μl of stock solution is added to 1 ml of phosphate buffer solution of pH 7.4. The solution was then stirred for 4 h at 25° C. in order to reach equilibrium. After this incubation period, the solution was filtered using 0.45 micron PVDF injector filters to remove the insoluble fraction of the compound and subsequently filtrate is taken for quantification using UV Detector. The concentration of test sample was calculated using the linearity/calibration curve.
Data set [2] can be described thus: physchem. Conditions: 25 °C, pH 7.4, aqueous buffer, kinetic from dmso stock.
Experimental: Solubility Test Procedure I:
as §1
A short description of data set [3]: Thermodynamic solubility (Solubility Test Procedure II). Conditions: for solubility thermodynamic at 24 h: thermodynamic from solid.
Experimental: Solubility Test Procedure II:
Stock solutions of the test compounds and fulvestrant were prepared in phosphate buffered saline (PBS) pH 7.4 and sodium acetate buffer pH 4.0, which was incubated for 24 h at room temperature with constant mixing at 100 rpm in the same tube. After incubation, the tubes were centrifuged for 20 min. at 10000 rpm. Later 200 μL of sample was taken and filtered. The filtrate was analysed by HPLC-UV against 0.0012 mg/ml, 0.037 mg/mL, 0.3 mg/ml, 0.1 mg/ml and 1 mg/ml of dimethylsulfoxide (DMSO) stock.
Solubility (μg/ml)=[Peak area of sample/Peak area of standard]×Concentration of standard % Aqueous solubility: [Test solubility (μg/ml)/incubation concentration (μg/ml)]×100
Data set [4] is described as follows: Kinetic solubility (Solubility Test Procedure I). The conditions noted are these: phosphate buffer, 25 °C, pH 7.4, aqueous buffer, kinetic from dmso stock.
Experimental: Solubility Test Procedure I:
as §1

Each structure is given as a SMILES string. In brackets after ≈: the same amount, converted by molar mass. Structures can show the parent of a compound that is named as a salt.

Here are results for five molecules from patent US20210253626A1, “PRODRUGS OF FULVESTRANT” (KASHIV BIOSCIENCES, LLC, priority 2018, published 2021).

The solubility is the concentration that dissolves in the medium under given conditions. A high value points to a readily soluble substance. As usually defined, the solubility (thermodynamic) is the concentration in solution at equilibrium with solid.

Take `C[C@]12CC[C@@H]3c4ccc(OC(=O)CCC(=O)O)cc4C[C@@H](CCCCCCCCC[S+]([O-])CCCC(F)(F)C(F)(F)F)[C@H]3[C@@H]1CC[C@@H]2O` (stereo partly drawn) [Example 5, 4-(((7R,8R,9S,13S,14S,17S)-17-hydroxy-13-methyl-7-(9-((4,4,5,5,5-pentafluoropentyl)sulfinyl)nonyl)-7,8,9,11,12,13,14,15,16,17-decahydro-6H-cyclopenta[a]phenanthren-3-yl)oxy)-4-oxobutanoic acid]: in data set [1], the “Increase in solubility compare to fulvestrant (Fold)” value (from here on “Increase … (Fold)”) is listed as 295 Fold. Besides, the solubility at 4 h in data set [2] was determined as 1.4 µM (≈ 0.99 µg/mL).

As to `C[C@]12CC[C@@H]3c4ccc(OC(=O)CN5CCCC5)cc4C[C@@H](CCCCCCCCC[S+]([O-])CCCC(F)(F)C(F)(F)F)[C@H]3[C@@H]1CC[C@@H]2O` (stereo partly drawn) [Example 8, (7R,8R,9S,13S,14S,17S)-17-hydroxy-13-methyl-7-(9-((4,4,5,5,5-pentafluoropentyl)sulfinyl)nonyl)-7,8,9,11,12,13,14,15,16,17-decahydro-6H-cyclopenta[a]phenanthren-3-yl 2-(pyrrolidin-1-yl)acetate], the “Increase … (Fold)” value in data set [1] is 3500 Fold. Moreover, the concentration in solution in data set [2] (solubility at 4 h) came to 17.1 µM (≈ 12.3 µg/mL).

In the case of `C[C@]12CC[C@@H]3c4ccc(OC(=O)CN5CCOCC5)cc4C[C@@H](CCCCCCCCC[S+]([O-])CCCC(F)(F)C(F)(F)F)[C@H]3[C@@H]1CC[C@@H]2O` (stereo partly drawn) [Example 10, (7R,8R,9S,13S,14S,17S)-17-hydroxy-13-methyl-7-(9-((4,4,5,5,5-pentafluoropentyl)sulfinyl)nonyl)-7,8,9,11,12,13,14,15,16,17-decahydro-6H-cyclopenta[a]phenanthren-3-yl 2-morpholinoacetate], in data set [1], the “Increase … (Fold)” value amounted to 32 Fold. In data set [2], this molecule displayed a solubility at 4 h of 0.2 µM (≈ 0.147 µg/mL).

For `C[C@]12CC[C@@H]3c4ccc(OC(=O)N5CCC(N6CCCCC6)CC5)cc4C[C@@H](CCCCCCCCC[S+]([O-])CCCC(F)(F)C(F)(F)F)[C@H]3[C@@H]1CC[C@@H]2O` (stereo partly drawn) [Example 29, (7R,8R,9S,13S,14S,17S)-17-hydroxy-13-methyl-7-(9-((4,4,5,5,5-pentafluoropentyl)sulfinyl)nonyl)-7,8,9,11,12,13,14,15,16,17-decahydro-6H-cyclopenta[a]phenanthren-3-yl [1,4′-bipiperidine]-1′-carboxylate hydrochloride], the “Thermodynamic solubility (mg/mL) pH 4.0” value in data set [3] (sodium acetate buffer pH 4.0, 24 h room temperature, test compound concentration 1 mg/mL, hydrochloride) is listed as 0.75 mg/mL.

For the molecule `C[C@]12CC[C@@H]3c4ccc(O)cc4C[C@@H](CCCCCCCCC[S+]([O-])CCCC(F)(F)C(F)(F)F)[C@H]3[C@@H]1CC[C@@H]2O` (stereo partly shown) [Fulvestrant], the solubility (thermodynamic) at 24 h in data set [3] (phosphate buffered saline (PBS), pH 7.4, aqueous buffer) came out at 1.2 µg/mL (≈ 1.98 µM); in data set [3] (sodium acetate buffer, pH 4, aqueous buffer) it was 2.9 µg/mL (≈ 4.78 µM). In data set [4], this molecule had a solubility at 4 h of 0.005 µM (≈ 0.00303 µg/mL).
